Reference: PubChem BioAssay (NCI)
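Cells were grown in 96-well plates and exposed to each compound for 48 hours at five concentrations; endpoints were interpolated linearly between bracketing concentrations, or set to the highest concentration if not reached. GI50 marks 50% less growth. TGI is the concentration that stops growth completely.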

Key:
Assay in all cases: NCI tumour cell line growth inhibition, 48 h
UO-31 renal = test system: UO-31 renal
U251 CNS = test system: U251 CNS
A498 renal = test system: A498 renal
SF-539 CNS = test system: SF-539 CNS
RXF 393 renal = test system: RXF 393 renal
BT-549 breast = test system: BT-549 breast
MALME-3M melanoma = test system: MALME-3M melanoma
KM12 colon = test system: KM12 colon
M14 melanoma = test system: M14 melanoma
A549 NSCLC = test system: A549 NSCLC
CCRF-CEM leukemia = test system: CCRF-CEM leukemia
MCF7 breast = test system: MCF7 breast
MDA-MB-435 = test system: MDA-MB-435
SF-295 CNS = test system: SF-295 CNS
SN12C renal = test system: SN12C renal
SK-MEL-5 melanoma = test system: SK-MEL-5 melanoma
SNB-75 CNS = test system: SNB-75 CNS
ACHN renal = test system: ACHN renal
HCT-116 colon = test system: HCT-116 colon
SW-620 colon = test system: SW-620 colon
786-0 renal = test system: 786-0 renal
K-562 leukemia = test system: K-562 leukemia
NCI-H23 lung = test system: NCI-H23 lung
NCI/ADR-RES ovarian = test system: NCI/ADR-RES ovarian
HT29 colon = test system: HT29 colon
SR leukemia = test system: SR leukemia
UACC-62 melanoma = test system: UACC-62 melanoma
HOP-92 NSCLC = test system: HOP-92 NSCLC
PC-3 prostate = test system: PC-3 prostate
OVCAR-8 ovarian = test system: OVCAR-8 ovarian
CAKI-1 renal = test system: CAKI-1 renal
HCC-2998 colon = test system: HCC-2998 colon
TK-10 renal = test system: TK-10 renal
EKVX NSCLC = test system: EKVX NSCLC
NCI-H460 lung = test system: NCI-H460 lung
HL-60(TB) leukemia = test system: HL-60(TB) leukemia
UACC-257 melanoma = test system: UACC-257 melanoma
RPMI-8226 leukemia = test system: RPMI-8226 leukemia
MDA-MB-231 breast = test system: MDA-MB-231 breast
DU-145 prostate = test system: DU-145 prostate
HS 578T breast = test system: HS 578T breast
OVCAR-3 ovarian = test system: OVCAR-3 ovarian
OVCAR-5 ovarian = test system: OVCAR-5 ovarian
HCT-15 colon = test system: HCT-15 colon
SK-OV-3 ovarian = test system: SK-OV-3 ovarian
SK-MEL-28 melanoma = test system: SK-MEL-28 melanoma
HOP-62 NSCLC = test system: HOP-62 NSCLC
T-47D breast = test system: T-47D breast
MOLT-4 leukemia = test system: MOLT-4 leukemia
SF-268 CNS = test system: SF-268 CNS
LOX IMVI melanoma = test system: LOX IMVI melanoma

COC[C@]12CC[C@@H](C)[C@H](C)[C@H]1C1=CC[C@@H]3[C@@]4(C)CCCNC(C)(C)[C@@H]4CC[C@@]3(C)[C@]1(C)CC2
GI50 (UO-31 renal): 1570 nM | TGI (UO-31 renal): 3200 nM | GI50 (U251 CNS): 1720 nM | TGI (U251 CNS): 3430 nM | GI50 (A498 renal): 1510 nM | TGI (A498 renal): 3380 nM | GI50 (SF-539 CNS): 1600 nM | TGI (SF-539 CNS): 3030 nM | GI50 (RXF 393 renal): 1540 nM | TGI (RXF 393 renal): 3020 nM | GI50 (BT-549 breast): 1800 nM | TGI (BT-549 breast): 3600 nM | GI50 (MALME-3M melanoma): 1740 nM | TGI (MALME-3M melanoma): 3610 nM | GI50 (KM12 colon): 1860 nM | TGI (KM12 colon): 3430 nM | GI50 (M14 melanoma): 1770 nM | TGI (M14 melanoma): 3570 nM | GI50 (A549 NSCLC): 1800 nM | TGI (A549 NSCLC): 3770 nM | GI50 (CCRF-CEM leukemia): 1670 nM | TGI (CCRF-CEM leukemia): 4200 nM | GI50 (MCF7 breast): 1540 nM | TGI (MCF7 breast): 3370 nM | GI50 (MDA-MB-435): 1650 nM | TGI (MDA-MB-435): 3110 nM | GI50 (SF-295 CNS): 1880 nM | TGI (SF-295 CNS): 3570 nM | GI50 (SN12C renal): 3090 nM | TGI (SN12C renal): 11800 nM | GI50 (SK-MEL-5 melanoma): 1710 nM | TGI (SK-MEL-5 melanoma): 3110 nM | GI50 (SNB-75 CNS): 1770 nM | TGI (SNB-75 CNS): 4770 nM | GI50 (ACHN renal): 1780 nM | TGI (ACHN renal): 3220 nM | GI50 (HCT-116 colon): 1490 nM | TGI (HCT-116 colon): 2920 nM | GI50 (SW-620 colon): 1800 nM | TGI (SW-620 colon): 3580 nM | GI50 (786-0 renal): 1690 nM | TGI (786-0 renal): 3210 nM | GI50 (K-562 leukemia): 1050 nM | TGI (K-562 leukemia): 2810 nM | GI50 (NCI-H23 lung): 1800 nM | TGI (NCI-H23 lung): 3620 nM | GI50 (NCI/ADR-RES ovarian): 1780 nM | TGI (NCI/ADR-RES ovarian): 3570 nM | GI50 (HT29 colon): 1580 nM | TGI (HT29 colon): 3260 nM | GI50 (SR leukemia): 1480 nM | TGI (SR leukemia): 3250 nM | GI50 (UACC-62 melanoma): 1710 nM | TGI (UACC-62 melanoma): 3190 nM | GI50 (HOP-92 NSCLC): 1540 nM | TGI (HOP-92 NSCLC): 4360 nM | GI50 (PC-3 prostate): 1490 nM | TGI (PC-3 prostate): 3380 nM | GI50 (OVCAR-8 ovarian): 2190 nM | TGI (OVCAR-8 ovarian): 4940 nM | GI50 (CAKI-1 renal): 1750 nM | TGI (CAKI-1 renal): 3360 nM | GI50 (HCC-2998 colon): 1760 nM | TGI (HCC-2998 colon): 3380 nM | GI50 (TK-10 renal): 1870 nM | TGI (TK-10 renal): 3520 nM | GI50 (EKVX NSCLC): 1700 nM | TGI (EKVX NSCLC): 3420 nM | GI50 (NCI-H460 lung): 1720 nM | TGI (NCI-H460 lung): 3350 nM | GI50 (HL-60(TB) leukemia): 1280 nM | TGI (HL-60(TB) leukemia): 3050 nM | GI50 (UACC-257 melanoma): 2050 nM | TGI (UACC-257 melanoma): 4460 nM | GI50 (RPMI-8226 leukemia): 2190 nM | TGI (RPMI-8226 leukemia): 5190 nM | GI50 (MDA-MB-231 breast): 1810 nM | TGI (MDA-MB-231 breast): 3400 nM | GI50 (DU-145 prostate): 1930 nM | TGI (DU-145 prostate): 3410 nM | GI50 (HS 578T breast): 2040 nM | TGI (HS 578T breast): 4850 nM | GI50 (OVCAR-3 ovarian): 1830 nM | TGI (OVCAR-3 ovarian): 3290 nM | GI50 (OVCAR-5 ovarian): 1810 nM | TGI (OVCAR-5 ovarian): 3320 nM | GI50 (HCT-15 colon): 1510 nM | TGI (HCT-15 colon): 3160 nM | GI50 (SK-OV-3 ovarian): 5130 nM | TGI (SK-OV-3 ovarian): 19800 nM | GI50 (SK-MEL-28 melanoma): 1810 nM | TGI (SK-MEL-28 melanoma): 3340 nM | GI50 (HOP-62 NSCLC): 1730 nM | TGI (HOP-62 NSCLC): 3550 nM | GI50 (T-47D breast): 1870 nM | TGI (T-47D breast): 4390 nM | GI50 (MOLT-4 leukemia): 1300 nM | TGI (MOLT-4 leukemia): 3030 nM | GI50 (SF-268 CNS): 1920 nM | TGI (SF-268 CNS): 3740 nM | GI50 (LOX IMVI melanoma): 1130 nM | TGI (LOX IMVI melanoma): 2490 nM
